# Source: patent publication US5430045A, “Method of reducing or preventing bone marrow hypoplasia” (Free Radical Sciences, Inc., priority 1993, dated 1995)
# Several values for one entry are separate records, joined by “and”; a condition that tells them apart may be missing. Equal entries are not always repeated.
# What was measured:
# peripheral blood [1] = tested on: peripheral blood; design: species or system mice; details: mouse, in vivo
# Method: On study day 17, the animals were anesthetized with methoxyflurane (in a bell jar). When deeply anesthetized, blood was obtained by cardiac puncture and transferred for hematological analysis into tubes containing an EDTA suspension.
# The following hematologic assays were conducted.
# Statistical tests were performed at the α level of 0.01. Listing of the individual data and summary statistics (mean, standard error and sample size) was provided. The average body weight changes from study day 3 for study days 4-10 and 11-17 and average food consumption for study days 4-10 and 11-17 was analyzed.
# bone marrow [2] = experiment: Bone marrow smear differential, cells/femur and myeloid:erythroid ratio, Example 1; format: in vivo, mice
# Method: Prepared slides were stained and evaluated microscopically.
# Statistical tests were performed at the α level of 0.01. Listing of the individual data and summary statistics (mean, standard error and sample size) was provided. The average body weight changes from study day 3 for study days 4-10 and 11-17 and average food consumption for study days 4-10 and 11-17 was analyzed. […] Specifically, the interaction of AZT and procysteine® was evaluated.
# Microscopic analysis of the bone marrow smears was conducted by evaluating 500 cells for the differential analysis and 500 cells for the myeloid: erythroid ratio.
# bone marrow [3] = experiment: Nucleated cells per femur (bone marrow cells before plating), Example 1; format: in vivo, mice; details: for Nucleated Cells/Femur: M,F,combined in turn
# Method: (§1) Populations of bone marrow colony forming cells were evaluated. Bone marrow was collected and the stem cell assay conducted, as follows: one femur per mouse was cut at the distal and proximal ends. Using a syringe and 25 gauge needle, 5 mL of IMDM media was flushed through the femur into a collection tube (2.5 mL flushed into one end, then 2.5 ml into the other end). The tube was washed using Iscove's Modified Dulbecco's Media containing 20% fetal bovine serum and the cell concentration was adjusted to the desired count for the colony assay.
# (§2) Terminal blood was evaluated for hematological effects, and bone marrow smears and aspirates were counted and 10^4 nucleated cells of the aspirate were cultured 14 days to assess hematopoietic progenitor cells.
# [4] = tested on: bone marrow colony forming cells; experiment: Hematopoietic progenitor colony forming assay of bone marrow, Example 1; design: species or system mice; details: mouse, in vivo
# Method: as §1
# In triplicate, the marrow cells were put into a mixture of methylcellulose and plated into 35 mm diameter dishes. The dishes were incubated approximately 2 weeks (37° C., 5% CO2, 100% relative humidity) then manually scored under a microscope for myeloid, erythroid, and mixed colonies.
# as §2
# peripheral blood [5] = tested on: peripheral blood; design: species or system mice; details: mouse, in vivo; remark: listed apart in the source
# Method: An eight week evaluation of the potential for oral Procysteine® to modulate AZT-induced hematologic toxicity in mice was conducted. As noted above, AZT-related bone marrow toxicity, and resultant bone marrow hypoplasia, limits the utility of this drug.
# (§3) Animals were weighed (not fasted) on study day 59 and euthanized, and specimens were collected as described.
# On study day 59, surviving mice were deeply anesthetized with methoxyflurane in a bell jar. While the mice were deeply anesthetized, blood for hematological analysis was obtained via cardiac puncture using needles/syringes coated with K3 EDTA. While deeply anesthetized, the mice were then euthanized by exsanguination followed by cervical dislocation. Then, bone marrow smears and aspirates were prepared and liver and kidneys were collected as subsequently described in this report.
# The following hematology assays were conducted:
# Statistical tests were performed at α≈0.01. Listings of the individual data were provided. Summary statistics by sex (mean, standard error and sample size) were provided for the responses for each group and for the differences between groups 1 and 2, between groups 3 and 5 and between groups 4 and 6. The average across weekly intervals for body weight change from study day 3 was analyzed. The average across weekly intervals for food consumption starting with the interval between days 3-4 were analyzed. The model included factors for block, sex and group effects and the group by sex interaction. the interactions with block effect were assumed negligible. Data for both sexes were included in one model to get an overall estimate of the residual standard deviation used in the statistical comparisons.
# (§4) The difference between the means for groups 3 and 5 and the difference between the means for groups 4 and 6 were compared to the control delta. The significance of the two individual comparisons is designated in the summary statistics listing. Pairwise comparisons of the mean response for group 2 to group 1, group 3 to group 1, group 4 to group 1, group 5 to group 2, and group 6 to group 2 were also performed. The significance of these five comparisons was designated in the summary statistics listing. In total, the significance of seven statistical comparisons (two on the mean differences and five on the mean responses) are indicated in the summary statistics listing.
# femoral bone marrow = experiment: Histopathology of femoral bone marrow sections, Example 2; format: in vivo, mice
# Method: as §3
# (§5) One femur from each mouse was removed and transversely halved. One half was preserved in 10% neutral buffered formalin, then submitted to a histology department for further preparation. The other half of the femur was used to prepare bone marrow smears. […] Prepared slides for bone sections and bone marrow smears were stained (Diff-Quik®) and the smears and sections were evaluated microscopically.
# bone marrow [6] = experiment: Bone marrow smear differential and M:E ratio, Example 2; format: in vivo, mice
# Method: as §5, §4
# (§6) Statistical analysis of bone marrow data included an analysis of the results from bone marrow smears (differential count and M:E ratio), analysis of the histopathologic characterization data for bone marrow cellularity, analysis of the bone marrow cellularity on the day of necropsy, analysis of the results of the hematopoietic colony forming assays (based on 10^4 mononuclear bone marrow (cells/dish), and analysis of the number of colony forming units represented per femur (cellularity data multiplied by colony forming data).
# bone marrow [7] = experiment: Nucleated cells/femur and colony forming cells, Example 2; format: in vivo, mice
# Method: Bone marrow colony-forming cells were evaluated. During necropsy, one femur per mouse was cut at the distal and proximal ends. Using a syringe and 25 G needle, 5 ml of Iscove's Modified Dulbecco's Media (IMDM) was flushed through the femur into a collection tube (2.5 ml flushed into one end, then 2.5 ml into the other end). The tube was washed using IMDM containing 20% fetal bovine serum and the cell concentration was adjusted to the desired count for the colony assay. In triplicate, the marrow cells were put into a mixture of methylcellulose, stem cell factor, interleukin-3, granulocyte macrophage--colony stimulating factor, and erythropoietin, and plated into 35 mm diameter dishes. The dishes were incubated 10 days (37° C., 5% CO2, 100% relative humidity) then manually scored under a light microscope for myeloid (white), erythroid (red), and mixed colonies.
# as §6
# [8] = GSH concentrations in blood, liver and kidney by HPLC, Example 2; format: in vivo, mice
# [9] = Histopathology of adrenal, skin and tail, Example 2; design: species or system mice; details: mouse, in vivo
# [10] = AZT 50 mg/kg/day, M,F,combined in turn
# [11] = AZT 500 mg/kg/day, M,F,combined in turn
# [12] = 8 weeks, AZT 50/day, F, M in turn
# [13] = 8 weeks, AZT 500/day, F, M in turn
# [14] = 8 weeks, no AZT, F (N 9), M (N 10) in turn
compound,measurement,setting,value
Cc1cn([C@H]2C[C@H](N=[N+]=[N-])[C@@H](CO)O2)c(=O)[nH]c1=O [AZT],"mean corpuscular volume, mean corpuscular hemoglobin, incidence of polychromasia, anisocytosis, macrocytes and Howell-Jolly bodies",peripheral blood [1],increases
same,"total hemoglobin concentration, hematocrit and erythrocyte counts",peripheral blood [1],significant (p<0.01) decreases
same,Bone Marrow-Miscellaneous Cells %,bone marrow [2]; [10],0.4% and 0.5%
same,Lymphocyte,bone marrow [2]; [10],0.047 /Femur × 10**6 and 0.046 /Femur × 10**6
same,Bone Marrow-Miscellaneous Cells %,bone marrow [2]; [11],0.2%
same,Lymphocyte,bone marrow [2]; [11],0.022 /Femur × 10**6 and 0.015 /Femur × 10**6 and 0.019 /Femur × 10**6
same,metarubricytes (nonproliferating),bone marrow [2]; bone marrow smears,marked reduction
same,rubriblasts,bone marrow [2]; bone marrow smears,mild reduction
same,total count of erythroid series cells,bone marrow [2]; bone marrow smears,reduced total count
same,nonproliferating compartment of the myeloid series,"bone marrow [2]; mouse, in vivo",reduction
same,proliferating compartment of the myeloid series,"bone marrow [2]; mouse, in vivo",significantly increased
same,Nucleated Cells/Femur,bone marrow [3]; AZT 50 mg/kg/day,11.7 ×10**6 and 9.9 ×10**6 and 10.8 ×10**6
same,Nucleated Cells/Femur,bone marrow [3]; AZT 500 mg/kg/day,10.5 ×10**6 and 8.8 ×10**6 and 9.6 ×10**6
same,nucleated cells of bone marrow aspirates,"bone marrow [3]; AZT and high-dose AZT/Procysteine, vs controls",significant reduction
same,total colonies and colony forming units-granulocyte/macrophage,[4],significant induction
same,HCT,peripheral blood [5],significant decrease
same,MCV and MCH,peripheral blood [5],Significant increases
same,RBC and HGB,peripheral blood [5],Significant decreases
same,platelets,peripheral blood [5],significant increases
same,Bizarre Mitotic Figures (number of mice),femoral bone marrow; [12],0
same,Erythroid Hypoplasia (number of mice),femoral bone marrow; [12],10 and 6
same,General Hypoplasia (number of mice),femoral bone marrow; [12],1
same,Hemosiderin (number of mice),femoral bone marrow; [12],0
same,Erythroid Hypoplasia (number of mice),femoral bone marrow; [13],9 and 8
same,Hemosiderin (number of mice),femoral bone marrow; [13],4 and 2
same,erythroid or general bone-marrow-hypoplasia,"femoral bone marrow; both doses, both sexes",36/39
same,erythroid hypoplasia,femoral bone marrow; female mice,19/20
same,erythroid hypoplasia,femoral bone marrow; male mice,14/19
same,erythroid cells in bone marrow smears,bone marrow [6]; male and female,significant reduction
same,metarubricytes (nonproliferating) and rubriblasts,bone marrow [6]; male and female,significantly reduced
same,total proliferating myeloid and total myeloid cells,bone marrow [6]; male and female,significantly increased
same,total number of colonies,bone marrow [7]; both high dose AZT groups,significant increases
same,Nucleated Cells/Femur,"bone marrow [7]; males and females, high dose AZT ± Procysteine, vs controls",significantly decreased
same,Blood GSH,"[8]; mouse, in vivo",significantly decreased with increasing AZT dose
same,epidermal melanin-like pigment of tail,[9],accumulation of epidermal melanin-like pigment
O=C1N[C@H](C(=O)O)CS1 [Procysteine],Bone Marrow-Miscellaneous Cells %,"bone marrow [2]; no AZT, M,F,combined in turn",1.0% and 1.2% and 1.1%
same,Lymphocyte,"bone marrow [2]; no AZT, M,F,combined in turn",0.130 /Femur × 10**6 and 0.141 /Femur × 10**6 and 0.135 /Femur × 10**6
same,Myeloid:Erythroid Ratio,"bone marrow [2]; no AZT, M,F,combined in turn",1.59 and 1.58
same,Nucleated Cells/Femur,bone marrow [3]; no AZT,12.8 ×10**6 and 12.0 ×10**6 and 12.4 ×10**6
same,HCT,peripheral blood [5],39.6%
same,MCV,peripheral blood [5],51 fL
same,Retic,peripheral blood [5],1.4%
same,WBC,peripheral blood [5],2.1 10^3 /μl
same,Bizarre Mitotic Figures (number of mice),femoral bone marrow; [14],0
same,Erythroid Hypoplasia (number of mice),femoral bone marrow; [14],0
same,General Hypoplasia (number of mice),femoral bone marrow; [14],0
same,Hemosiderin (number of mice),femoral bone marrow; [14],0
same,Normal bone marrow (number of mice),femoral bone marrow; [14],9 and 10
same,AZT-induced bone marrow pathology / hypoplasia,femoral bone marrow; eight weeks of cotreatment,significantly ameliorated
same,erythroid series cells,bone marrow [6]; female mice,only a mild decrease
same,myeloid series cells,bone marrow [6]; female mice,no meaningful alterations
same,bone marrow status,bone marrow [6]; male mice,normal bone marrows
same,blood GSH concentrations vs AZT-only treated groups,"[8]; at 0, 50, and 500 mg/kg/day AZT",higher
